In patent publication EP1149096B1, “TRICYCLIC PYRIDINE N-OXIDES VASOPRESSIN AGONISTS” (Wyeth, priority 1999, dated 2000):

Tested on: Vasopressin V2
Assay: Vasopressin V2 agonist effects in normal conscious water-loaded rats
Type: in vivo
Settings: oral dose of 10 mg/kg, urine collected for four hours after dosing, Sprague-Dawley (CD) rats, water-loaded 30 ml/kg; for Changes in Urinary Osmolality: Percent changes in osmolality vs. control; for Urine Volume (% decrease): Percent decrease in urine volume vs. control
Text: Vasopressin V2 Agonist Effects of Test Compounds in Normal Conscious Water-Loaded Rats:
Male or female normotensive Sprague-Dawley rats (Charles River Laboratories, Inc., Kingston, NY) of 350-500 g body weight were supplied with standard rodent diet (Purina Rodent Lab. Chow 5001) and water ad libitum. On the day of test, rats were placed individually into metabolic cages equipped with devices to separate the feces from the urine and containers for collection of urine. A test compound or a reference agent was given at an oral dose of 10 mg/kg in a volume of 10 ml/kg. The vehicle used was 20% dimethylsulfoxide (DMSO) in 2.5% preboiled corn starch. Thirty minutes after dosing the test compound, rats were gavaged with water at 30 ml/kg into the stomach using a feeding needle. During the test, rats were not provided with water or food. Urine was collected for four hours after dosing of the test compound. At the end of four hours, urine volume was measured. Urinary osmolality was determined using a Fiske One-Ten Osmometer (Fiske Associates, Norwood, MA, 02062) or an Advanced CRYOMATIC Osmometer, Model 3C2 (Advanced Instruments, Norwood, MA). Determinations of Na^+, K^+ and Cl^- ion were carried out using ion specific electrodes in a Beckman SYNCHRON EL-ISE Electrolyte System analyzer. The urinary osmolality should increase proportionally. In the screening test, two rats were used for each compound. If the difference in the urine volume of the two rats was greater than 50%, a third rat was used.

Row | Structure (SMILES) | Changes in Urinary Osmolality [%] | Urine Volume (% decrease) [%]
1 | Cc1ccn(-c2ccc(C(=O)N3Cc4ccc[n+]([O-])c4Nc4ccccc43)c(C(F)(F)F)c2)n1 [Example 4, 4-[(3-Methyl-1H-pyrazol-1-yl)-2-(trifluoromethyl)-phenyl]-(6,11-dihydro-5H-pyrido[2,3-b][1,5]benzodiazepin-6-yl)-methanone 1-oxide] | 331 | 72
2 | Cc1ccn(-c2ccc(C(=O)N3Cc4ccc[n+]([O-])c4Nc4ccccc43)c(Cl)c2)n1 [Example 1, [2-Chloro-4-(3-methyl-1H-pyrazol-1-yl)-phenyl]-(6,11-dihydro-5H-pyrido[2,3-b][1,5]benzodiazepin-6-yl)-methanone-1-oxide] | 753 | 80
3 | Cc1ccn(-c2ccc(C(=O)N3Cc4ccc[n+]([O-])c4Nc4ccccc43)c(Br)c2)n1 [Example 3, [2-Bromo-4-(3-methyl-1H-pyrazol-1-yl)-phenyl]-(6,11-dihydro-5H-pyrido [2,3-b][1,5]benzodiazepin-6-yl)-methanone-1-oxide] | 747 | 90
